Results as given in patent US11413278B2, “Compounds and methods for promoting stress resistance” (priority 2015, dated 2022).
Entries after “also recorded” stand apart in the source; their conditions may differ. Where two headings read alike, the source gives them in different places.

Legend:
human PARP1 = target: T1, human PARP1 (Homo sapiens, UniProt P09874); assay: PARP inhibitor assay (HT Fluorescent Homogeneous PARP Inhibition Assay Kit); format: biochemical; conditions: 10 μM, in vitro
T1 construct: purchased Trevigen
Description: (§1) The assay was performed with the HT Fluorescent Homogeneous PARP Inhibition Assay Kit (Trevigen), following manufacturer's instructions. Briefly, nicotinamide adenine dinucleotide, human PARP1 and activated-DNA solution was added onto a 96-well plate. 54 repurchased small molecules, at 10 μM final concentration, were introduced onto the 96-well assay plate and incubated in a humid chamber at room temperature for 30 min in dark. Cycling mixture, with resazurin and cycling enzyme diaphorase, was then added and incubated further for 1 hr in dark. Reaction was terminated by adding the stopping buffer.
as §1, with “(Trevegen),” for “(Trevigen),”, “stopped” for “terminated”

WI-38 cells [1] = assay: CdCl2 (cadmium) resistance assay; format: cell-based, human; conditions: YES/NO; for Assay 2: Cadmium-resistant: * indicates partial
Description: (§2) For many stress conditions tested previously, one significant correlation to longevity is the cellular resistance to H2O2 or CdCl2. Applicants then tested these small molecules, at five different final concentrations (0.25 μM to 20 μM), for cadmium and MMS resistance in WI-38 cells.
(§3) The setups on 384-well plates and incubation times were the same as for H2O2 until the time of incubation with the stressors, which was 12 hours for both cadmium and MMS assays. Applicants tested several conditions, including conditions used to assay fibroblasts from long-lived animals (Salmon et al., 2005). These conditions produced better results with the positive controls (KEAP1 and AKT1 siRNAs) in the MMS assay. Thus, for MMS, the cells were shifted from growth media—OptiMEM+10% FBS, to DMEM (Gibco)+2% BSA (no serum) just before adding small molecules, which occurred 24 hours before MMS addition.
(§4) Isolated small molecules were tested for MMS and cadmium resistance twice in two independent assays. Each small molecule was analyzed at five different concentrations (0.25 μM to 20 μM final concentration), with technical triplicates for each dose. Data were analyzed using a global variance t-test.

WI-38 cells [2] = assay: MMS resistance assay; format: cell-based, human; conditions: YES/NO; for Assay 3: MMS-resistant: * indicates partial; for Assay 5: Triple resistant: H2O2, cadmium and MMS
Description: as §2, §3, §4

[3] = system: human dermal fibroblast (HDF) primary cells; assay: H2O2-resistance in primary human dermal fibroblasts; format: cell-based; conditions: YES/NO
C. elegans = C. elegans lifespan assays (liquid and plate); format: in vivo, Caenorhabditis elegans; conditions: Caenorhabditis elegans, at 66 uM
WI-38 cells [4] = conditions: for Assay 1: H2O2-resistant: YES/NO, if NO, possibly due to repeated freezing/thawing of stocks; for EC50: read-out: Est. ED50, dose response 0.6-20 μM, H2O2-resistance
FOXO3 = assay: qPCR analysis of FOXO3-regulated genes; format: cell-based, human; conditions: Homo sapiens, 24 h; Assay 10(m); at 10 uM, qPCR; read-out: Induction of FOXO3-regulated genes: TXNIP normalized fold-change
Description: (§5) For qPCR analysis, WI-38 cells were treated with small molecules (at 10 μM) (biological quadruplicates) for 24 hrs and processed for RNA isolation and reverse transcription (RT) with the Cells-to-Ct Kit (Life Technologies), following manufacturer's instructions. RT products were diluted with H2O and used for qPCR analysis on an ABI 7300 system (Life Technologies) (technical triplicates). Relative expression levels of target genes were normalized to the genes B2M, PPIA and GAPDH. To knock down the expression of FOXO3 or NRF2, WI-38 cells were transfected, using the RNAiMAX reagents (Life Technologies), with siRNA oligos (at 10 nM final concentration, 10 ml culture medium) for FOXO3 (Life Technologies) or NRF2 (Integrated DNA Technologies) on 10-cm petri dishes for 36 hrs, and then detached and aliquoted onto 96-well (for qPCR analysis) or 384-well plates (for H2O2-stress treatment). ˜24 hrs later, small molecules were introduced and incubated with cells for 24 hrs. Cells were then either processed with the Cells-to-Ct Kit to prepare RT products for qPCR analysis or subjected to H2O2 (700 μM) for 3 hrs and assayed for viability. The knockdown efficiency of FOXO3 or NRF2 was checked at 36 hrs post-transfection and at the end as well.
(§6) For qPCR analysis, WI-38 cells were treated with small molecules (at 10 μM) (biological quadruplicate) for 24 hrs and processed for RNA isolation and reverse transcription (RT) with the Cells-to-Ct Kit (Life Technologies), following manufacturer's instructions. RT products were diluted with H2O and used for qPCR analysis on a LightCycler 480 system (Roche) (technical triplicates). Relative expression levels of target genes were normalized to the genes B2M, PPIA and GAPDH. To knock down the expression of FOXO3 or NRF2, WI-38 cells were transfected with siRNA oligos (at 10 nM final concentration) for FOXO3 (Life Technologies) or NRF2 on 10-cm petri dish for 36 hrs, and then detached and aliquoted onto 96-well plates. ˜24 hrs later, small molecules were introduced and incubated with cells for 24 hrs. Cells were then processed with the Cells-to-Ct Kit to prepare RT products for qPCR analysis. The knockdown efficiency of FOXO3 or NRF2 was checked at 36 hrs post-transfection and at the end as well.
Many perturbations that increase lifespan and stress resistance in animals do so in a FOXO-dependent fashion (Kenyon, 2010c). Humans have several FOXO genes, but FOXO3, which promotes stress resistance in mammalian cell culture (Kops et al., 2002; Nemoto and Finkel, 2002; Tran et al., 2003), is the one that has been linked to exceptional longevity in humans (Anselmi et al., 2009; Flachsbart et al., 2009; Li et al., 2009; Pawlikowska et al., 2009; Soerensen et al., 2010; Willcox et al., 2008). FOXO1, in contrast, appears to be responsible for some symptoms of diabetes in mouse models (Cheng and White, 2011). For this reason, applicants have focused on analyzing potential ability of our small molecules to activate FOXO3. […] Another 4 molecules (Gr-7A, Gr-7C, O12 and O23) could induce robust expression (greater than 1.5-fold) of at least 2 FOXO3 target genes.

NRF2 = assay: qPCR analysis of NRF2-regulated genes; format: cell-based, human; conditions: Homo sapiens, 24 h; Assay 12(o); at 10 uM, qPCR; read-out: Induction of NRF2-regulated genes: HMOX1 normalized fold-change
Description: as §5, §6
NRF2/SKN-1, the oxidative stress and xenobiotic phase 2 detoxification protein, can extend animal lifespan (Sykiotis and Bohmann, 2008; Tullet et al., 2008). Applicants analyzed these small molecules for their ability to increase the expression of NRF2-regulated genes, including HMOX1 (heme oxygenase (decycling) 1; anti-oxidant), NQO1 (NAD(P)H dehydrogenase, quinone 1; phase 2 detoxification enzyme), GCLC (glutamate-cysteine ligase, catalytic) and GSTM1 (glutathionine S transferase) (Hur and Gray, 2011; Suzuki et al., 2013).

[5] = Assay 2(z), 1.0 × 10^9 bacteria/ml, wild type + FuDR (2012 July), read-out: Lifespan assay in liquid
[6] = Assay 3(aa), 2.5 × 10^9 bacteria/ml, wild type + FuDR, read-out: Lifespan assay in liquid
[7] = Assay 4(ab), 2.0 × 10^10 bacteria/ml, CF512 worms, no FuDR, read-out: Lifespan assay on plates

T1 sequence (P09874 whole entry): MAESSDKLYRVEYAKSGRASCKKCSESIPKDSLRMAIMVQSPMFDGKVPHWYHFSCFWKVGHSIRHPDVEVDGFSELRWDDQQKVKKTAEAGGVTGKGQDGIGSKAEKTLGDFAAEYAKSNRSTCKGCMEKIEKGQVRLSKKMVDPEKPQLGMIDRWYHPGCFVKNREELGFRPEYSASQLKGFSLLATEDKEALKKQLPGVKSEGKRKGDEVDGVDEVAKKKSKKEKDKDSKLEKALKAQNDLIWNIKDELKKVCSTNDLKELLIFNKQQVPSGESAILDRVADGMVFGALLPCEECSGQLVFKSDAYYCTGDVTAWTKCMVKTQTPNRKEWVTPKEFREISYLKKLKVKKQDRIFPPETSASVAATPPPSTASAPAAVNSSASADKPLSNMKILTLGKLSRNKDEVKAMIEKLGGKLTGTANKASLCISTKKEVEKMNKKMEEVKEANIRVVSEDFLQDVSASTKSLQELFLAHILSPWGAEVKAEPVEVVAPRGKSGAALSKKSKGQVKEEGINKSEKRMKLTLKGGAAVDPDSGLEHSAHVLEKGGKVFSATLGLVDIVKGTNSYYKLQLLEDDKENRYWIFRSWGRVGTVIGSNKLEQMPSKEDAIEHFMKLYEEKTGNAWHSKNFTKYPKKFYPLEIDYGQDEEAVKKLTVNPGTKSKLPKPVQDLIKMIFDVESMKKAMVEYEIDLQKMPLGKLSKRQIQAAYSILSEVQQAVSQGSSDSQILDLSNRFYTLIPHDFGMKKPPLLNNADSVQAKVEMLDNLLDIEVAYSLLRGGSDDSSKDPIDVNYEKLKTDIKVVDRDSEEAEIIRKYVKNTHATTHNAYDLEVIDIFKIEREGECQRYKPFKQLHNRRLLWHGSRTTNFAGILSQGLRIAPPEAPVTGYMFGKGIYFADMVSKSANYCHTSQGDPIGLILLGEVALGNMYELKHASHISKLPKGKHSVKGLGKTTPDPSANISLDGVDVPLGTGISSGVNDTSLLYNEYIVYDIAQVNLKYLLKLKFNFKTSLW

Row | SMILES | Inhibition of PARP1 (human PARP1) | Assay 4: H2O2- & Cd-resistant (WI-38 cells [1]) | Assay 2: Cadmium-resistant (WI-38 cells [1]) | Assay 3: MMS-resistant (WI-38 cells [2]) | Assay 5: Triple resistant (WI-38 cells [2]) | Assay 6: H2O2-resistant, at 10 uM, human dermal fibroblast (HDF) primary cells [3] | ILS at 66 µM (C. elegans; [5]) | ILS at 66 µM (C. elegans; [6]) | ILS at 66 µM (C. elegans; [7]) | Assay 1: H2O2-resistant (WI-38 cells [4]) | EC50 (WI-38 cells [4]) | fold induction at 10 µM (FOXO3) | fold induction at 10 µM (NRF2)
1 | CNS(=O)(=O)c1cc(-c2nnc(O)c3ccccc23)ccc1C [Gr-2A] | inhibitors of PARP1; also recorded: PARP inhibitors | YES | YES | YES | YES | YES | 22.7% | 10.8% | 11.4% | YES | 3.05 µM |  | 
2 | Oc1nnc(Cc2ccccc2)c2ccccc12 [Gr-2C] | inhibitors of PARP1; also recorded: PARP inhibitors | YES | YES | YES | YES | YES | 15.3% | 0.1% | 7.6% | YES | 3.12 µM | 1.2 | 1.23
3 | CN1CCC=C(Cc2nnc(O)c3ccccc23)C1 [Gr-2D] | inhibitors of PARP1 |  |  |  |  |  |  |  |  |  | 3.42 µM |  | 
